Patent publication US20050080570A1, “Predicting probabilities of achieving a desired minimum trough level for an anti-infective agent” (priority 2003, published 2005)
Like-named read-outs stand apart in the source and are kept apart here.

Columns and labels:
[1] = 100% human serum; fourth study; cited from earlier work
[2] = average value across the studies

| Compound | Protein-binding correction factor, 100% HS [1] | Protein-binding correction factor, Average [2] | Protein-binding correction factor, Average (human) |
| --- | --- | --- | --- |
| O=C1Nc2ccc(Cl)cc2[C@@](C#CC2CC2)(C(F)(F)F)O1 [EFV, Efavirenz] | 25.5 | 18.4 |  |
| Cc1ccnc2c1NC(=O)c1cccnc1N2C1CC1 [NVP, Nevirapine] | 1.2 | 1.3 |  |
| CC(C)(C)NC(=O)[C@@H]1C[C@@H]2CCCC[C@@H]2CN1C[C@@H](O)[C@H](Cc1ccccc1)NC(=O)[C@H](CC(N)=O)NC(=O)c1ccc2ccccc2n1 [SQV, Saquinavir] |  |  | 23.4 |
| Cc1c(O)cccc1C(=O)N[C@@H](CSc1ccccc1)[C@H](O)CN1C[C@H]2CCCC[C@H]2C[C@H]1C(=O)NC(C)(C)C [NFV, Nelfinavir] | 90.6 | 46.1 |  |
